The record followed here is PubChem BioAssay AID488788 (Broad Institute, 2010).

Inconclusive results are not listed. Active and inactive are the calls of the source. No rule for the calls is given here.

Sequence of CAAX prenyl protease 2 (Saccharomyces cerevisiae (strain ATCC 204508 / S288c)) (Q03530 whole entry, looked up): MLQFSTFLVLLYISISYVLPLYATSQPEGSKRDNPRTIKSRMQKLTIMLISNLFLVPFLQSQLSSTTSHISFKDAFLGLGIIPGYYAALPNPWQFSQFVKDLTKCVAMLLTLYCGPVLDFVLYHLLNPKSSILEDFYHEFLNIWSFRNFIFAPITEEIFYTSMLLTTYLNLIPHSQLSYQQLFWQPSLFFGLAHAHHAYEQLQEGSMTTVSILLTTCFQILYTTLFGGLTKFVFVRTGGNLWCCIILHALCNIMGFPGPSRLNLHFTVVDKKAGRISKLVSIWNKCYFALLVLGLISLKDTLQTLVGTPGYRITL

This assay concerns the target CAAX prenyl protease 2 (Saccharomyces cerevisiae (strain ATCC 204508 / S288c)) (UniProt Q03530). The assay can be described thus: yeast Rce1 CAAX endoprotease inhibition – biochemical, plate reader, cherry-pick, dose response (AID 488788). The note with it: Rce1p enzyme activity, at 10 µM (top of the series).
Regarding `C/C=C(/C)C(=O)O[C@H]1[C@@H](O)c2c(ccc3ccc(=O)oc23)OC1(C)C`, the “activity change, negative = inhibition” value is “inactive”. For the compound `C=CCn1c(O)c(C(CC)=Nc2ccc(N(CC)CC)cc2)c(=O)[nH]c1=O`, the “activity change, negative = inhibition” value is “inactive”. As for `Nc1nc2n[nH]nc2c(=O)[nH]1`, the “activity change, negative = inhibition” value was “inactive”.

`CC(C)C[C@H](NC(=O)c1nc[nH]c1C(=O)N1CCNCC1)C(=O)OCc1ccccc1`: the “activity change, negative = inhibition” value was “inactive”.

Consider `Cc1cc(Br)ccc1NC(=O)c1cnc(N2CCN(c3ccccn3)CC2)c2ccccc12`, for which the “activity change, negative = inhibition” value is “inactive”. Then `COc1cc(OC)cc(-c2ncc3ccccn23)c1`, with “inactive”. As to `CCCOc1ccccc1C(=O)NCCCC(=O)O`, the “activity change, negative = inhibition” value is “inactive”. Regarding `CCOC(=O)c1sc2nc(C3CC3)cc(-c3ccc(OC)cc3)c2c1N`, the “activity change, negative = inhibition” value was “inactive”. With `COc1ccccc1C1=NN(C2=NN=C(N)Cc3ncnn32)C(O)(C(F)(F)F)C1` (stereo not given), the “activity change, negative = inhibition” value is “inactive”. Then `CCCCn1c(=O)c(-c2ccccc2)c(O)c2ccccc21`, with “inactive”; and `O=C(COC(=O)c1ccc(S(=O)(=O)N2CCCC2)cc1)NCc1ccccc1`, with “inactive”. As for `O=C(O)c1ccc(Nc2nc3ccc(Cl)cc3[nH]2)cc1`, the “activity change, negative = inhibition” value is “inactive”. As for `COc1ccc(C2C3=C(CC(C)(C)CC3=O)Nc3n[nH]c(C)c32)cc1` (stereo not given), the “activity change, negative = inhibition” value is “inactive”. Turning to `CCOC(=O)C[C@H]1c2ccccc2S(=O)(=O)N1Cc1cc(OC)c(OC)c(OC)c1`, the “activity change, negative = inhibition” value was “inactive”.

For the compound `CCn1cc(C(=O)NCCO)c(=O)c2cc(F)c(N3CCN(C)CC3)cc21`, the “activity change, negative = inhibition” value was “inactive”. Then `CC(C)CC(=O)Nc1ccc2oc(-c3cccnc3)nc2c1`, with “inactive”.

As for `c1ccc(C[n+]2cccc3c4ccccc4ccc32)cc1`, the “activity change, negative = inhibition” value was “inactive”. With `CCN(CC)CCNC(=O)CSc1c2c(nc3cc(Cl)ccc13)CCCC2`, the “activity change, negative = inhibition” value was “inactive”. The result for `Cc1nn(CCC(=O)O)c2nc(-c3cccnc3)cc(C(F)(F)F)c12` reads “inactive”; that for `CCN(CC)CCCNC(=O)CCc1c(C)n(CC)c2cc(-c3ccccc3OC)nn2c1=O`, “inactive”; that for `CCCCOC(=O)Nc1nc(C)c(C(=O)OCC)s1`, “inactive”. Regarding `CN1CC(C(=O)c2ccc(Cl)cc2)C(c2ccc(Cl)cc2Cl)C1` (stereo not given), the “activity change, negative = inhibition” value was “inactive”. Consider `COC(=O)Cn1c(CCC(=O)O)ccc1-c1ccccc1`, for which the “activity change, negative = inhibition” value is “inactive”. For the compound `Cn1c(=O)c(C(=O)NCCO)c(O)c2ccccc21`, the “activity change, negative = inhibition” value was “inactive”. As for `C#CCNC(=O)C1=C[C@@H](C2CCCCC2)C[C@@H](OCc2ccc(CO)cc2)O1`, the “activity change, negative = inhibition” value is “inactive”. The result for `CCOC(=O)c1nnn2c1nc(N1CCOCC1)c1ccccc12` reads “inactive”; that for `Oc1ccc(-c2nc3ccccn3c2NCc2ccco2)cc1`, “inactive”; that for `CC(=O)OCC[N+](C)(C)C`, “inactive”. As to `C=CCn1c(N2CCCCCC2)nc2c1c(=O)n(C)c(=O)n2C`, the “activity change, negative = inhibition” value was “inactive”. Regarding `CCC(=O)Nc1cccc(NC(=S)NC(=O)c2cccs2)c1`, the “activity change, negative = inhibition” value is “inactive”. With `Cc1cc(C(=O)N[C@H](c2ccccc2)[C@@]2(C)C[C@@H]2[C@@H](C)C(=O)Nc2ccc3ccccc3c2)n(C)n1`, the “activity change, negative = inhibition” value is “inactive”. For `CCC1CCCCN1C(=O)NC(=O)c1ccccc1` (stereo not given), the “activity change, negative = inhibition” value was “inactive”. Consider `CC(C)NCC(O)COCCOc1ccc(Br)cc1` (stereo not given), for which the “activity change, negative = inhibition” value was “inactive”. On to `COc1ccc(-c2cn3ccccc3n2)cc1[N+](=O)[O-]`, for which the “activity change, negative = inhibition” value was “inactive”. Then `O=C(O)c1ccc(N/N=C/c2ccc(-c3ccccc3Cl)o2)cc1`, with “inactive”; and `Cc1ccc(S(=O)(=O)c2cn(C)c3cc(N4CCOCC4)c(F)cc3c2=O)cc1`, with “inactive”. The result for `COc1ccccc1NC(=O)/C(=C\c1cccnc1)NC(=O)c1ccc(C)cc1` reads “inactive”; that for `OC1CCN(C(c2ccc3ncccc3c2)c2nnnn2C2CCCCC2)CC1` (stereo not given), “inactive”. On to `Cc1cc(C)n2nc(CC(=O)NNC(=O)c3ccc(N(C)C)cc3)nc2n1`, for which the “activity change, negative = inhibition” value was “inactive”.

Take `CCO[C@@H]1OC(C(=O)N2CCN(Cc3ccccc3)CC2)=C[C@H](c2ccccc2)[C@H]1CCCO`: the “activity change, negative = inhibition” value was “inactive”. Regarding `COc1ccc(-c2c(-c3ccsc3)oc3ccc(N4CCOCC4)cc23)cn1`, the “activity change, negative = inhibition” value was “inactive”.

With `O=C(Nc1cc(Cl)cc(Cl)c1)c1coc(=O)c(Br)c1`, the “activity change, negative = inhibition” value is “inactive”. Turning to `COc1cc(-c2c(C#N)c(N)nc3c2c(C)nn3-c2ccc(C)c(C)c2)cc(OC)c1OC`, the “activity change, negative = inhibition” value was “inactive”. For the compound `CCC(=O)Nc1cc(-c2nn(CC(=O)N3CCCCC3)c(=O)c3ccccc23)ccc1N1CCOCC1`, the “activity change, negative = inhibition” value is “inactive”.

Consider `O=C(O)c1ccc2cccc(Cl)c2c1O`, for which the “activity change, negative = inhibition” value is “inactive”.

As for `COc1ccc(-c2ccc(-c3nnc(-c4cc(OC)ccc4OC)o3)cc2)cc1`, the “activity change, negative = inhibition” value was “inactive”. Regarding `CC(=O)c1c(C)[nH]c(C(=O)OCc2ccc(Br)cc2)c1C`, the “activity change, negative = inhibition” value was “inactive”. For `COc1ccccc1NC(=O)CN(c1ccc(C23CC4CC(CC(C4)C2)C3)cc1)S(C)(=O)=O`, the “activity change, negative = inhibition” value is “inactive”. The result for `O=C1CCCC(O)=C1N=Nc1ccc2ncsc2c1` reads “inactive”; that for `CSc1nc(NCC(C)O)c2c3c(sc2n1)CN(C)CC3` (stereo not given), “inactive”.
